This note sets out measurements from patent US20200361895A1, “NOVEL SULFONAMIDE CARBOXAMIDE COMPOUNDS” (Inflazome Limited, priority 2017, published 2020).

Each structure is given as a SMILES string. Structures can show the parent of a compound that is named as a salt. Where two headings read alike, the source gives them in different places.

Data set [1] can be described thus: PK protocol, intravenous administration. Type of data set: in vivo, male Sprague Dawley rats. The following applies: male, Sprague Dawley, plasma, rat; for Vd: read-out: Vdss. The procedure: Pharmacokinetic parameters were determined in male Sprague Dawley rats (Charles River, UK, 250-350 g; or Vital River Laboratory Animal Technology Co Ltd, Beijing, China, 7-9 weeks old). Animals were individually housed during the study and maintained under a 12 h light/dark cycle. Animals had free access to food and water.
For intravenous administration, compounds were formulated as a solution in water or DMSO:PBS [10:90] in 2 mL/kg dosing volume and administered via tail vein. For oral administration, compounds were formulated as a solution in DMSO:water [10:90] in 5 mL/kg dosing volume and administered orally.
Serial blood samples (about 120-300 μL) were taken from each animal at each of 8 time-points post dose (0.083, 0.25, 0.5, 1, 2, 4, 8 and 24 h) or at each of 12 time-points post dose (0.03, 0.1, 0.17, 0.25, 0.5, 1, 2, 4, 6, 8, 12 and 24 h) or pre-dose and at each of 9 time-points post dose (0.25, 0.5, 1, 2, 4, 6, 8, 12 and 24 h). Samples were held on ice for no longer than 30 minutes before centrifugation (10,000 rpm (8,385 g) for 3 minutes; or 5,696 rpm (3,000 g) for 15 minutes) for plasma generation. Plasma was frozen on dry ice prior to bioanalysis. PK parameters were generated from LC-MS/MS data using Dotmatics or Phoenix WinNonlin 6.3 software.

Data set [2] deals with T1, NLRP3 (Homo sapiens, UniProt Q96P20). Put plainly: THP-1 cells pyroptosis assay (LPS + nigericin, resazurin readout; THP IC50). Format: cell-based. Details: Seed THP-1 cells (25,000 cells/well) containing 1.0 μg/ml LPS in 40 μl of RPMI medium; host or cells: THP-1 cells. The essentials: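 IC50 from 4-parameter fit of resazurin fluorescence (100 μM, 1-2 hrs), reflecting surviving cells after pyroptosis. LPS-primed (1 μg/ml) THP-1 cells in FBS-free RPMI got compound for 3 hrs at 37° C (top 10 μM, half-log, 8 points), then nigericin 5 μM for 1 hr.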
T1 sequence (Q96P20 whole entry): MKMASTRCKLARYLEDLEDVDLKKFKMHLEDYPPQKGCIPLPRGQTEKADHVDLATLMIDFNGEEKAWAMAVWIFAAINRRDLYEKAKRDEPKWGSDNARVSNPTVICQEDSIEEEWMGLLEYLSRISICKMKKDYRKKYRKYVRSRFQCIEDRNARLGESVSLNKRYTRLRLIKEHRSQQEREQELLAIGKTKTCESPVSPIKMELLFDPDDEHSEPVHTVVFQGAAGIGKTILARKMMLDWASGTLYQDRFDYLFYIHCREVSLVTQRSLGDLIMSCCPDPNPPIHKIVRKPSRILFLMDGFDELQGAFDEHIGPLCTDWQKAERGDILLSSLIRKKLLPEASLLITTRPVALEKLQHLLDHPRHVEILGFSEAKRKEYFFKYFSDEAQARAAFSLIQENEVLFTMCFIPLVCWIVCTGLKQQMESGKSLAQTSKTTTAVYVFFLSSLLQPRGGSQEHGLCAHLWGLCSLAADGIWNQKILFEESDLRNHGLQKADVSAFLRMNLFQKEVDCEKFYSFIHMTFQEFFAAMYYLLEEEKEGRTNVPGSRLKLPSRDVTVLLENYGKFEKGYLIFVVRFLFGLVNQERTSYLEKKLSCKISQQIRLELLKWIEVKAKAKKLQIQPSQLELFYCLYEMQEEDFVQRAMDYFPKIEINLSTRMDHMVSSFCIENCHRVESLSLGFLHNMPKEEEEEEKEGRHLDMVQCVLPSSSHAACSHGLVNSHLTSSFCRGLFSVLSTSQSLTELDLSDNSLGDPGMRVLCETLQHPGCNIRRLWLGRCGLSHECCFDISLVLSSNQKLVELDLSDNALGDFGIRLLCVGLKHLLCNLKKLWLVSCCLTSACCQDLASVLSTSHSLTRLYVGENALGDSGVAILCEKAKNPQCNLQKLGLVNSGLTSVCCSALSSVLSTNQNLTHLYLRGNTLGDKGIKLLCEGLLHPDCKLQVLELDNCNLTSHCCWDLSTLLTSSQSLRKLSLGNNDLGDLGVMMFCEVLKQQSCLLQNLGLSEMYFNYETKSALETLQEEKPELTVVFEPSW
In general terms: Resazurin is reduced to fluorescent resorufin, in cell work by metabolically active cells.

Data set [3] concerns the target T1, NLRP3. Put plainly: Human whole blood IL1β release assay (LPS + nigericin, AlphaLisa IL-1β; HWB IC50). Type of data set: cell-based. Details: Human whole blood in Li-heparin tubes was obtained from healthy donors from a volunteer donor panel; from tissue; host or cells: human whole blood from healthy donors. Particulars: IL-1β release. Put shortly: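 IL-1β in plasma supernatant quantified by AlphaLisa after nigericin (10 μM final, 1 h, 37 °C) triggering of human whole blood that had been preincubated 3 h with LPS (1 μg/ml) plus compound (half-log, 8 points, from 10 μM). IC50 by variable-slope four-parameter regression.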
(Bead proximity is the source of the signal in Alpha formats.)

In general, AUC refers to the area under the concentration-time curve, a measure of exposure. A lower AUC goes with low exposure. A word on the clearance: it is the volume of plasma or blood freed of the substance per unit of time. Read a high clearance as a high capacity for elimination. By half-life is commonly meant how long it takes for the measured level to halve. A higher half-life goes with slow loss. What is called IC50 is the midpoint of a concentration-inhibition curve. For the compound `CC(C)c1cc(F)cc(-c2cccnc2)c1NC(=O)NS(=O)(=O)c1cc(C(=O)N(C)C)n(C)n1` [Example 33, 3-(N-((4-Fluoro-2-iso-propyl-6-(pyridin-3-yl)phenyl)carbamoyl)sulfamoyl)-N,N,1-trimethyl-1H-pyrazole-5-carboxamide, sodium salt], in data set [1] (dose 1 mg/kg), the AUC worked out at 274 ng·h/mL, the clearance came out at 60.7 mL/min/kg, the half-life is 6.3 h and the Vd was determined as 3.95 L/kg. Besides, in data set [2], the IC50 is no more than 500 nM. Besides, the IC50 in data set [3] was no more than 500 nM.
Turning to `CC(C)c1cc(F)cc(-c2cnn(C)c2)c1NC(=O)NS(=O)(=O)c1cc(C(=O)N(C)C)n(C)n1` [Example 34, 3-(N-((4-Fluoro-2-iso-propyl-6-(1-methyl-1H-pyrazol-4-yl)phenyl)carbamoyl)sulfamoyl)-N,N,1-trimethyl-1H-pyrazole-5-carboxamide, sodium salt], in data set [1] (dose 1 mg/kg), the AUC came out at 661 ng·h/mL, the clearance stood at 25.2 mL/min/kg, the half-life was 12.1 h and the Vd was determined as 3.03 L/kg. Moreover, the IC50 in data set [2] was no more than 1000 nM. Further, in data set [3], the IC50 was no more than 500 nM.
`COc1cc(-c2cc(F)cc(C(C)C)c2NC(=O)NS(=O)(=O)c2cc(CN(C)C)n(C)n2)ccn1` [Example 36, 5-((Dimethylamino)methyl)-N-((4-fluoro-2-iso-propyl-6-(2-methoxypyridin-4-yl)phenyl)carbamoyl)-1-methyl-1H-pyrazole-3-sulfonamide]: in data set [1] (dose 1 mg/kg), the AUC was determined as 356 ng·h/mL, the clearance was found to be 47.6 mL/min/kg, the half-life is 0.5 h and the Vd is 0.8 L/kg. Besides, the IC50 in data set [2] is no more than 500 nM. For the same compound, in data set [3], the IC50 was no more than 500 nM.
As for `COc1cc(-c2cc(F)cc(C(C)C)c2NC(=O)NS(=O)(=O)c2cc(CN(C)C)n(C(C)C)n2)ccn1` [Example 37, 5-((Dimethylamino)methyl)-N-((4-fluoro-2-iso-propyl-6-(2-methoxypyridin-4-yl)phenyl)carbamoyl)-1-iso-propyl-1H-pyrazole-3-sulfonamide], in data set [1] (dose 1 mg/kg), the AUC came out at 248 ng·h/mL, the clearance worked out at 67.2 mL/min/kg, the half-life was 0.3 h and the Vd is 1.32 L/kg. Further, the IC50 in data set [2] is no more than 500 nM. The 50% inhibitory concentration (IC50) in data set [3] is no more than 500 nM.
In the case of `CC(C)c1cc(F)cc(-c2cccc(C#N)c2)c1NC(=O)NS(=O)(=O)c1cc(CN(C)C)n(C)n1` [Example 38, N-((3′-Cyano-5-fluoro-3-iso-propyl-[1,1′-biphenyl]-2-yl)carbamoyl)-5-((dimethylamino)methyl)-1-methyl-1H-pyrazole-3-sulfonamide], in data set [1] (dose 1 mg/kg), the AUC amounted to 375 ng·h/mL, the clearance came to 51.5 mL/min/kg, the half-life was 1.2 h and the Vd is 1.14 L/kg. Also, in data set [2], the half-inhibitory concentration (IC50) was no more than 500 nM. In addition, the IC50 in data set [3] is no more than 500 nM.
Regarding `CC(C)c1cc(F)cc(-c2cccnc2)c1NC(=O)NS(=O)(=O)c1cc(CN(C)C)n(C)n1` [Example 44, 5-((Dimethylamino)methyl)-N-((4-fluoro-2-isopropyl-6-(pyridin-3-yl)phenyl)carbamoyl)-1-methyl-1H-pyrazole-3-sulfonamide], in data set [1] (dose 1 mg/kg), the AUC is 259 ng·h/mL, the clearance was determined as 64.9 mL/min/kg, the half-life is 0.5 h and the Vd turned out to be 0.75 L/kg. Besides, the IC50 in data set [2] is no more than 500 nM. Also, the IC50 in data set [3] was no more than 500 nM.
As to `Cc1cc(-c2cc(F)cc(C(C)C)c2NC(=O)NS(=O)(=O)c2cc(CN(C)C)n(C)n2)n(C)n1` [Example 45], in data set [1] (dose 1 mg/kg), the AUC was determined as 259 ng·h/mL, the clearance was 65.6 mL/min/kg, the half-life was 0.5 h and the Vd came to 0.98 L/kg. Besides, in data set [2], the IC50 was no more than 500 nM. For the same compound, the IC50 in data set [3] was no more than 500 nM.
Consider `CC#Cc1cc(-c2cc(F)cc(C(C)C)c2NC(=O)NS(=O)(=O)c2ccn(C(C)C)n2)ccn1` [Example 51, N-((4-Fluoro-2-isopropyl-6-(2-(prop-1-yn-1-yl)pyridin-4-yl)phenyl)carbamoyl)-1-isopropyl-1H-pyrazole-3-sulfonamide], for which, in data set [1] (dose 1 mg/kg), the AUC turned out to be 600 ng·h/mL, the clearance came to 27.8 mL/min/kg, the half-life is 3.7 h and the Vd turned out to be 3.68 L/kg. Also, the IC50 in data set [2] is no more than 500 nM. Moreover, in data set [3], the IC50 is no more than 500 nM.
Regarding `CC(C)c1cc(F)cc(-c2ccnc(C#N)c2)c1NC(=O)NS(=O)(=O)c1cn(C(C)C)cn1` [Example 54, N-((2-(2-Cyanopyridin-4-yl)-4-fluoro-6-isopropylphenyl)carbamoyl)-1-isopropyl-1H-imidazole-4-sulfonamide], in data set [1] (dose 1 mg/kg), the AUC worked out at 200 ng·h/mL, the clearance amounted to 85.4 mL/min/kg, the half-life was 1.6 h and the Vd worked out at 2.5 L/kg. Besides, the IC50 in data set [2] was no more than 500 nM. Further, in data set [3], the IC50 is no more than 500 nM.
Take `COc1cc(-c2cc(F)c3c(c2NC(=O)NS(=O)(=O)c2ccn(C(C)C)n2)CCC3)ccn1` [Example 55, N-((7-Fluoro-5-(2-methoxypyridin-4-yl)-2,3-dihydro-1H-inden-4-yl)carbamoyl)-1-isopropyl-1H-pyrazole-3-sulfonamide]: in data set [1] (dose 1 mg/kg), the AUC was found to be 1860 ng·h/mL, the clearance is 9.8 mL/min/kg, the half-life is 6.9 h and the Vd came to 3.25 L/kg. The IC50 in data set [2] is no more than 500 nM. Moreover, the IC50 in data set [3] was no more than 1000 nM.
On to `CC(C)c1cc(F)cc(-c2cccnc2)c1NC(=O)NS(=O)(=O)c1ccn(C[C@@H](C)O)n1` [Example 60, (R)-N-((4-Fluoro-2-isopropyl-6-(pyridin-3-yl)phenyl)carbamoyl)-1-(2-hydroxypropyl)-1H-pyrazole-3-sulfonamide], for which, in data set [1] (dose 1 mg/kg), the AUC turned out to be 300 ng·h/mL, the clearance came to 56.3 mL/min/kg, the half-life was 1 h and the Vd was found to be 1.22 L/kg. For the same compound, in data set [2], the IC50 is no more than 500 nM. In data set [3], the IC50 is no more than 500 nM.
In the case of `COc1cc(-c2ccc3c(c2NC(=O)NS(=O)(=O)c2ccn(CCN(C)C)n2)CCC3)ccn1` [Example 61, 1-(2-(Dimethylamino)ethyl)-N-((5-(2-methoxypyridin-4-yl)-2,3-dihydro-1H-inden-4-yl)carbamoyl)-1H-pyrazole-3-sulfonamide], in data set [1] (dose 1.69 mg/kg), the AUC amounted to 1140 ng·h/mL, the clearance is 24.6 mL/min/kg, the half-life is 1.2 h and the Vd came out at 0.6 L/kg. The IC50 in data set [2] is no more than 500 nM. In data set [3], the IC50 was no more than 500 nM.
Consider `CCn1nc(S(=O)(=O)NC(=O)Nc2c(-c3ccnc(OC)c3)ccc3c2CCC3)cc1CN(C)C` [Example 64, 5-((Dimethylamino)methyl)-1-ethyl-N-((5-(2-methoxypyridin-4-yl)-2,3-dihydro-1H-inden-4-yl)carbamoyl)-1H-pyrazole-3-sulfonamide], for which, in data set [1] (dose 1.7 mg/kg), the AUC was found to be 2710 ng·h/mL, the clearance worked out at 10.5 mL/min/kg, the half-life was 3.8 h and the Vd amounted to 1.23 L/kg. The IC50 in data set [2] was no more than 500 nM. Further, in data set [3], the IC50 is no more than 500 nM.
Regarding `COc1cc(-c2ccc3c(c2NC(=O)NS(=O)(=O)N(C)C2CCN(C)C2)CCC3)ccn1` (stereo not drawn) [Example 122, 3-(N-Methyl-N-(1-methylpyrrolidin-3-yl)sulfamoyl)-1-(5-(2-methoxypyridin-4-yl)-2,3-dihydro-1H-inden-4-yl)urea], in data set [1] (dose 1 mg/kg), the AUC is 1320 ng·h/mL, the clearance was 12.6 mL/min/kg, the half-life was 11.1 h and the Vd is 8.69 L/kg. The IC50 in data set [2] was no more than 500 nM. Also, the IC50 in data set [3] was no more than 500 nM.
Take `CC(C)n1ccc(S(=O)(=O)NC(=O)Nc2c(-c3ccncc3)cc(F)c3c2CCC3)n1` [Example 205, N-((7-Fluoro-5-(pyridin-4-yl)-2,3-dihydro-1H-inden-4-yl)carbamoyl)-1-isopropyl-1H-pyrazole-3-sulfonamide]: in data set [1] (dose 1 mg/kg), the AUC was determined as 4870 ng·h/mL, the clearance is 3.4 mL/min/kg, the half-life was 2.6 h and the Vd was 0.57 L/kg. Besides, the IC50 in data set [2] was no more than 500 nM. The IC50 in data set [3] is no more than 500 nM.
